Test results: patent US11684675B2, “Dimeric collagen hybridizing peptides and methods of using” (University of Utah Research Foundation, priority 2015, dated 2023)

Columns and labels:
[1] = Triple helix melting point (Tm) by circular dichroism at 225 nm; format: physicochemical; settings: for Tm (° C.): triple helix melting
Protocol: FIGS. 5A, 5B, 5C, and 5D show the thermal denaturation of fully assembled CHPs and subsequent cooling to initial temperature. Samples were heated at 1° C./min from their initial temperature final temperature of 90° C. Sample was then cooled at 1° C./min to the starting temperature. (A) Thermal denaturation and partial reassembly of CHP CF-6d (150 μM) monitored at 225 nm. Sample was measured from 4° C. to 90° C. (B) Thermal denaturation and partial reassembly of CHP […] (75 μM, corresponding to 150 μM strand concentration) monitored at 225 nm. Sample was measured from 4° C. to 90° C. (C) Thermal denaturation and partial reassembly of CHP CF-9 (150 μM) monitored at 225 nm. Sample was measured from 10° C. to 90° C. (D) Thermal denaturation and partial reassembly of CHP CF-9d (75 μM, corresponding to 150 μM strand concentration) monitored at 225 nm. Sample was measured from 10° C. to 90° C.
FIGS. 11A and 11B show the First Derivative of mean residue ellipticity (MRE) at 225 nm in CD. […] There is no significant change in melting point between the monomeric and dimeric forms of the same peptide.
Circular Dichroism: Circular Dichroism (CD) was measured for all peptides at 225 nm. Melting curves were taken on peptides between 10 and 80° C. at a heating rate of 0.5° C./min, with pauses at each 1° C. Refolding experiments were performed after peptide solutions were incubated at 4° C. for at least 12 hours. Concentrations were normalized to strand concentration.

porcine gelatin = assay: SPR gelatin capture by immobilized biotinylated CHPs; format: binding; settings: gelatin 25 μg/mL
Protocol: FIGS. 7A and 7B show SPR data for porcine gelatin capture by immobilized CHPs. […] Gelatin was applied to the sensor surface during the association phase, followed by elution with blank during dissociation phase. Association occurred for 981 s, followed by dissociation for 1800 s. Values were normalized to a 100% biotin lane, and were adjusted to the mass of peptide immobilized in each well. (A) Preheated (80° C., 10 min), quenched (0° C., 30 s) gelatin (25 μg/mL) was applied to the sensor at an ambient temperature of 37° C. (B) Preheated (80° C., 10 min), quenched (0° C., 30 s) gelatin (25 μg/mL) was applied to the sensor at an ambient temperature of 15° C.
Surface Plasmon Resonance (SPR). […] However, there were major differences observed during the association phase. At 37° C., there was a much higher amount of gelatin adsorbed to all the peptides tested on the surface when compared to 15° C. […] At 15° C., gelatin adsorbed to the surface at a much slower rate. […] However, this lower adsorption rate can be due to a reduced diffusion rate near the surface or a more condensed gelatin structure at this lower temperature.
Dimeric CHP is able to hybridize effectively with denatured collagens with faster folding kinetics than current, monomeric CHPs. Surface plasmon resonance (SPR) was used to measure the ability of the CHPs to trap denatured collagen from solution.

melting point ([1]; Example 3): 38 °C | Tm (° C.) ([1]; Table 1): 38 (SEQ ID NO: 58) ° C. | Tm (° C.) ([1]; Table 2): 38 (SEQ ID NO: 58) ° C.
Substance: [(GPO)6G3)2KG [6d]
ability to bind gelatin (porcine gelatin; 15° C.): only able to bind gelatin at a rate comparable to the monomeric CHPs | ability to bind gelatin (porcine gelatin; 37° C.): higher ability to bind gelatin than that of an equivalent number of strands in their monomeric counterparts
